Reference: patent US11713306B2, “5-substituted difluoropiperidine compounds with blood-brain barrier penetrable capability” (Wayshine Biopharm Holding Limited, priority 2018, dated 2023)

Target: FYN (Homo sapiens (Human), UniProt P06241)
Test: Kinase inhibition assay (Caliper, FAM-labeled peptide substrate)
Assay type: biochemical
Method: 2.5 times of the kinase (VEGFR2 or EGFR or FYN) buffer solution was added to the compound diluted in equal concentration in the 384-well plate and incubated at 22-27° C. for 10 minutes, then 2.5 times of the FAM-labeled peptide substrate and ATP buffer solution were added therein and incubated at 28° C., and then the stop buffer solution was added to stop the reaction. The data was read by Caliper and the following formula was used to calculate the IC50 inhibition: Percent inhibition=(max-conversion)/(max-min)*100. Staurosporine was used as a control. In kinase inhibition assays, some of the compounds of the present invention are effective in inhibiting VEGFR2/FYN/EGFR, so they have the potential for treating or preventing cancer or central nervous system diseases (Table 1).

Chain of FYN (P06241 whole entry): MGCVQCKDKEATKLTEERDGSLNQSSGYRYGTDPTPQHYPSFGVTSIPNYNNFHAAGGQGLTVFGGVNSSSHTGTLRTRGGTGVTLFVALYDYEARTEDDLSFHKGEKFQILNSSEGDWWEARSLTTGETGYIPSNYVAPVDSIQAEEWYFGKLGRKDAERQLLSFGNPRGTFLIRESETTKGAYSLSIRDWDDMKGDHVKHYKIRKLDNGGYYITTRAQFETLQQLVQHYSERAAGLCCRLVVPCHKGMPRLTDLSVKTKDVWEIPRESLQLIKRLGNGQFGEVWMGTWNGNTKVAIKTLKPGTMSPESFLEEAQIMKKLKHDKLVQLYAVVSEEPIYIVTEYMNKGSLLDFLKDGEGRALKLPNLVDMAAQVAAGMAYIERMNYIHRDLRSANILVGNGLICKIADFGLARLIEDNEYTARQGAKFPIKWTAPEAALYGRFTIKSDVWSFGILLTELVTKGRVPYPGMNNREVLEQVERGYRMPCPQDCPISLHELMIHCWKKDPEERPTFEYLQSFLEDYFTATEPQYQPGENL

In the case of `COc1cc(O[C@H]2CCN(C)CC2(F)F)c2c(Nc3c(F)ccc4c3OCO4)ncnc2c1` [Compound 39, (S)—N-(5-fluorobenzo[d][1,3]dioxolcyclopenten-4-yl)-5-((3,3-difluoro-1-methylpiperidin-4-yl)oxy)-7-deuterated methoxyquinazolin-4-amine], the IC50 is reported as < 100 nM.

With `COc1cc(OC2CCN(C3COC3)CC2(F)F)c2c(Nc3c(Cl)ccc4c3OCO4)ncnc2c1` (racemic) [Compound 14, (R/S)-5-((3,3-difluoro-1-(oxetane-3-yl)piperidin-4-yl)oxy)-N-(5-chlorobenzo[d][1,3]dioxolcyclopenten-4-yl)-7-methoxyquinazolin-4-amine] the IC50 was < 100 nM.

In the case of `COc1cc(O[C@H]2CCN(C(C)C)CC2(F)F)c2c(Nc3c(F)ccc4c3OCO4)ncnc2c1` [Compound 47, (S)-5-((3,3-difluoro-1-isopropylpiperidin-4-yl)oxy)-N-(5-fluorobenzo[d][1,3]dioxolcyclopenten-4-yl)-7-methoxyquinazolin-4-amine], the IC50 is reported as < 100 nM.

For `CCN1CC[C@H](Oc2cc(OC)cc3ncnc(Nc4c(F)ccc5c4OCO5)c23)C(F)(F)C1` [Compound 42, (S)-5-((1-ethyl-3,3-difluoropiperidin-4-yl)oxy)-N-(5-fluorobenzo[d] [1,3]dioxolcyclopenten-4-yl)-7-methoxyquinazolin-4-amine], the IC50 was < 100 nM.

With `CCN1CCC(Oc2cc(OC)cc3ncnc(Nc4c(F)ccc5c4OCO5)c23)C(F)(F)C1` (racemic) [Compound 10, (R/S)-5-((1-ethyl-3,3-difluoropiperidin-4-yl)oxy)-N-(5-fluorobenzo[d] [1,3]dioxolcyclopenten-4-yl)-7-methoxyquinazolin-4-amine] the IC50 was < 100 nM.

With `CCOc1cc(O[C@H]2CCN(C)CC2(F)F)c2c(Nc3c(Cl)ccc4c3OCO4)ncnc2c1` [Compound 41, (S)—N-(5-chlorobenzo[d][1,3]dioxolcyclopenten-4-yl)-5-((3,3-difluoro-1-methylpiperidin-4-yl)oxy)-7-ethoxyquinazolin-4-amine] the IC50 was < 100 nM.

In the case of `COc1cc(O[C@@H]2CCN(C)CC2(F)F)c2c(Nc3c(F)ccc4c3OCO4)ncnc2c1` [Compound 23, (R)—N-(5-fluorobenzo[d][1,3]dioxolcyclopenten-4-yl)-5-((3,3-difluoro-1-methylpiperidin-4-yl)oxy)-7-deuterated methoxyquinazolin-4-amine], the IC50 is reported as < 100 nM.

For `COc1cc(OC2CCN(C(C)C)CC2(F)F)c2c(Nc3c(F)ccc4c3OCO4)ncnc2c1` (racemic) [Compound 15, (R/S)-5-((3,3-difluoro-1-isopropylpiperidin-4-yl)oxy)-N-(5-fluorobenzo[d][1,3]dioxolcyclopenten-4-yl)-7-methoxyquinazolin-4-amine], the IC50 was < 100 nM.

With `CCOc1cc(O[C@@H]2CCN(C)CC2(F)F)c2c(Nc3c(F)ccc4c3OCO4)ncnc2c1` [Compound 22, (R)—N-(5-fluorobenzo[d][1,3]dioxolcyclopenten-4-yl)-5-((3,3-difluoro-1-methylpiperidin-4-yl)oxy)-7-ethoxyquinazolin-4-amine] the IC50 was < 100 nM.

With `CCOc1cc(OC2CCN(C)CC2(F)F)c2c(Nc3c(F)ccc4c3OCO4)ncnc2c1` (racemic) [Compound 6, (R/S)—N-(5-fluorobenzo[d][1,3]dioxolcyclopenten-4-yl)-5-((3,3-difluoro-1-methylpiperidin-4-yl)oxy)-7-ethoxyquinazolin-4-amine] the IC50 was < 100 nM.

With `COc1cc(O[C@@H]2CCN(C)CC2(F)F)c2c(Nc3c(F)ccc4c3OCO4)ncnc2c1` [Compound 21, (R)—N-(5-fluorobenzo[d][1,3]dioxolcyclopenten-4-yl)-5-((3,3-difluoro-1-methylpiperidin-4-yl)oxy)-7-methoxyquinazolin-4-amine] the IC50 was < 100 nM.

`COc1cc(OC2CCN(C)CC2(F)F)c2c(Nc3cc(OC)c(Cl)cc3F)ncnc2c1` (racemic) [Compound 8, (R/S)—N-(4-chloro-2-fluoro-5-methoxyphenyl)-5-((3,3-difluoro-1-methylpiperidin-4-yl)oxy)-7-methoxyquinazolin-4-amine] was tested, and the IC50 was < 100 nM.

For `COc1cc(OC2CCN(C)CC2(F)F)c2c(Nc3c(Cl)ccc4c3OCO4)ncnc2c1` (racemic) [Compound 12, (R/S)—N-(5-chlorobenzo[d] [1,3]dioxolcyclopenten-4-yl)-5-((3,3-difluoro-1-methylpiperidin-4-yl)oxy)-7-deuterated methoxyquinazolin-4-amine], the IC50 was < 100 nM.

With `COc1cc(OC2CCN(C)CC2(F)F)c2c(Nc3c(F)ccc4c3OCO4)ncnc2c1` (racemic) [Compound 5, (R/S)—N-(5-fluorobenzo[d][1,3]dioxolcyclopenten-4-yl)-5-((3,3-difluoro-1-methylpiperidin-4-yl)oxy)-7-methoxyquinazolin-4-amine] the IC50 was < 100 nM.

`COc1cc(OC2CCN(C)CC2(F)F)c2c(Nc3c(F)ccc4c3OCO4)ncnc2c1` (racemic) [Compound 7, (R/S)—N-(5-fluorobenzo[d][1,3]dioxolcyclopenten-4-yl)-5-((3,3-difluoro-1-methylpiperidin-4-yl)oxy)-7-deuterated methoxyquinazolin-4-amine] was tested, and the IC50 was < 100 nM.

For `COc1cc(O[C@H]2CCN(C3COC3)CC2(F)F)c2c(Nc3c(Cl)ccc4c3OCO4)ncnc2c1` [Compound 46, (S)-5-((3,3-difluoro-1-(oxetane-3-yl)piperidin-4-yl)oxy)-N-(5-chlorobenzo[d][1,3]dioxolcyclopenten-4-yl)-7-methoxyquinazolin-4-amine], the IC50 was < 100 nM.

In the case of `COc1cc(O[C@H]2CCN(C)CC2(F)F)c2c(Nc3c(F)ccc4c3OCO4)ncnc2c1` [Compound 37, (S)—N-(5-fluorobenzo[d][1,3]dioxolcyclopenten-4-yl)-5-((3,3-difluoro-1-methylpiperidin-4-yl)oxy)-7-methoxyquinazolin-4-amine], the IC50 is reported as < 100 nM.

With `COc1cc(O[C@H]2CCN(C)CC2(F)F)c2c(Nc3c(Cl)ccc4c3OCO4)ncnc2c1` [Compound 44, (S)—N-(5-chlorobenzo[d] [1,3]dioxolcyclopenten-4-yl)-5-((3,3-difluoro-1-methylpiperidin-4-yl)oxy)-7-deuterated methoxyquinazolin-4-amine] the IC50 was < 100 nM.

In the case of `COc1cc(O[C@@H]2CCN(C(C)C)CC2(F)F)c2c(Nc3c(F)ccc4c3OCO4)ncnc2c1` [Compound 31, (R)-5-((3,3-difluoro-1-isopropylpiperidin-4-yl)oxy)-N-(5-fluorobenzo[d] [1,3]dioxolcyclopenten-4-yl)-7-methoxyquinazolin-4-amine], the IC50 is reported as < 100 nM.

With `COc1cc(O[C@H]2CCN(C)CC2(F)F)c2c(Nc3cc(OC)c(Cl)cc3F)ncnc2c1` [Compound 40, (S)—N-(4-chloro-2-fluoro-5-methoxyphenyl)-5-((3,3-difluoro-1-methylpiperidin-4-yl)oxy)-7-methoxyquinazolin-4-amine] the IC50 was < 100 nM.

In the case of `COc1cc(OC2CCN(C)CC2(F)F)c2c(Nc3c(Cl)ccc4c3OCO4)ncnc2c1` (racemic) [Compound 4, (R/S)—N-(5-chlorobenzo[d][1,3]dioxolcyclopenten-4-yl)-5-((3,3-difluoro-1-methylpiperidin-4-yl)oxy)-7-methoxyquinazolin-4-amine], the IC50 is reported as < 100 nM.

`COc1cc(O[C@H]2CCN(C3COC3)CC2(F)F)c2c(Nc3c(F)ccc4c3OCO4)ncnc2c1` [Compound 45, (S)-5-((3,3-difluoro-1-(oxetane-3-yl)piperidin-4-yl)oxy)-N-(5-fluorobenzo[d] [1,3]dioxolcyclopenten-4-yl)-7-methoxyquinazolin-4-amine] was tested, and the IC50 was < 100 nM.
